Reference: ChEMBL document CHEMBL1201862, “PubChem BioAssay data set” (2004)
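Cultured in 96-well plates, cells were exposed to test compound for 48 hours across five concentrations. GI50 = concentration required for 50% inhibition of growth.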 Active and inactive are the calls of the source. Cut-off read from the data, not from the text of the source: active = GI50 up to about 1.1 µM and inactive = higher.

Legend:
Assay in all cases: growth of human tumour cells (NCI), 48 h
DLD-1 = system: DLD-1
DMS-114 = system: DMS-114
DMS-273 = system: DMS-273
HOP-18 = system: HOP-18
LXFL 529 = system: LXFL 529
M19-MEL = system: M19-MEL
RXF 631 = system: RXF 631
SNB-78 = system: SNB-78
XF498 = system: XF498

SMILES	GI50 (DLD-1)	GI50 (DMS-114)	GI50 (DMS-273)	GI50 (HOP-18)	GI50 (LXFL 529)	GI50 (M19-MEL)	GI50 (RXF 631)	GI50 (SNB-78)	GI50 (XF498)
S=c1nc(N2CCCCC2)ss1	26.7 µM (inactive)	19.7 µM (inactive)	17.5 µM (inactive)	40.6 µM (inactive)	15.1 µM (inactive)	18.2 µM (inactive)	29.4 µM (inactive)	32.2 µM (inactive)	20.1 µM (inactive)
C[C@]12CC[C@H](OC3OC(CO)C(O)C(O)C3O)C[C@H]1CC[C@@H]1[C@@H]2CC[C@]2(C)[C@@H](C3=CCOC3=O)CC[C@]12O (stereo partly specified) [ACTODIGIN]	39.7 µM (inactive)	10.2 µM (inactive)	1.97 µM (inactive)	50 µM (inactive)	–	11.7 µM (inactive)	–	26.5 µM (inactive)	1.44 µM (inactive)
CCCCCCCC(=O)OCC1OC(n2cc(F)c(=O)[nH]c2=O)C(N)C(O)C1O (stereo unspecified)	> 100 µM (inactive)	> 100 µM (inactive)	> 100 µM (inactive)	> 100 µM (inactive)	> 100 µM (inactive)	> 100 µM (inactive)	–	> 100 µM (inactive)	–
CC(=O)NC1C(OCc2ccccc2)OC(COC(=O)CCCCCCCCCCNc2ccc([N+](=O)[O-])c3[nH]c4ccccc4c(=O)c23)C(O)C1OC(C)C(=O)NC(C)C(=O)NC(CCC(N)=O)C(=O)OCc1ccccc1 (stereo unspecified)	> 100 µM (inactive)	> 100 µM (inactive)	> 100 µM (inactive)	> 100 µM (inactive)	> 100 µM (inactive)	> 100 µM (inactive)	–	> 100 µM (inactive)	> 100 µM (inactive)
Cc1c2cc[n+](C)cc2c(C)c2c1[nH]c1ccc(OC(C)(C)C)cc12	> 100 µM (inactive)	> 100 µM (inactive)	> 100 µM (inactive)	> 100 µM (inactive)	> 100 µM (inactive)	> 100 µM (inactive)	–	> 100 µM (inactive)	–
CCN(CC)CCCNc1ncc(C)c2c1c1ccc3c(O)cccc3c1n2C	1.47 µM (inactive)	1.39 µM (inactive)	0.76 µM (active)	0.635 µM (active)	1.61 µM (inactive)	–	–	14.2 µM (inactive)	15.2 µM (inactive)
O=C1CCCC[C@H]1[C@H]1CCC[C@@H]([C@H]2CCCCC2=O)C1=O	> 100 µM (inactive)	–	> 100 µM (inactive)	> 100 µM (inactive)	> 100 µM (inactive)	> 100 µM (inactive)	> 100 µM (inactive)	3.44 µM (inactive)	> 100 µM (inactive)
COc1cc(C(=C2SCCS2)c2nccc3cc(OC)c(OC)cc23)c([N+](=O)[O-])cc1OC	> 100 µM (inactive)	41.6 µM (inactive)	34.4 µM (inactive)	> 100 µM (inactive)	18.5 µM (inactive)	72.9 µM (inactive)	–	18 µM (inactive)	17.9 µM (inactive)
N#CC(C#N)=Cc1ccc(Oc2ccccc2)cc1	14.1 µM (inactive)	26.2 µM (inactive)	18.3 µM (inactive)	33.4 µM (inactive)	25.8 µM (inactive)	32 µM (inactive)	36.3 µM (inactive)	28.2 µM (inactive)	37.8 µM (inactive)
Cc1ccc(S(=O)(=O)CNC(=S)CCCC(=S)NCS(=O)(=O)c2ccc(C)cc2)cc1	> 100 µM (inactive)	–	44.2 µM (inactive)	–	44.9 µM (inactive)	> 100 µM (inactive)	41 µM (inactive)	78.9 µM (inactive)	> 100 µM (inactive)
CCN1c2ccccc2-c2c3c1cc(C)cc3c1ccccc1[n+]2CC	2.55 µM (inactive)	0.461 µM (active)	0.385 µM (active)	–	0.384 µM (active)	0.36 µM (active)	5.24 µM (inactive)	2.64 µM (inactive)	–
COc1cccc2c1C(=O)c1c(O)c3c(c(O)c1C2=O)CC(O)(C(C)=O)CC3OC1CC([N+](C)(C)C)C(O)C(C)O1 (stereo unspecified)	91.2 µM (inactive)	> 100 µM (inactive)	27.5 µM (inactive)	> 100 µM (inactive)	64.9 µM (inactive)	70.6 µM (inactive)	31.1 µM (inactive)	> 100 µM (inactive)	10.7 µM (inactive)
CCCN(CCCCC(NC(C)=O)C(=O)NCc1ccccc1)C(=O)N(C)N=O (stereo unspecified)	> 100 µM (inactive)	> 100 µM (inactive)	> 100 µM (inactive)	–	> 100 µM (inactive)	> 100 µM (inactive)	–	> 100 µM (inactive)	> 100 µM (inactive)
C/C(=N\NC(N)=S)C(CN(CC(C)C)CC(C)C)C(=O)Nc1ccc(C)cc1C (stereo unspecified)	> 100 µM (inactive)	> 100 µM (inactive)	> 100 µM (inactive)	> 100 µM (inactive)	> 100 µM (inactive)	> 100 µM (inactive)	–	> 100 µM (inactive)	> 100 µM (inactive)
Nc1ncnc2c1nc(Cl)n2[C@@H]1O[C@@H]2COP(=O)(O)O[C@H]2[C@H]1O [TOCLADESINE]	3.81 µM (inactive)	26.7 µM (inactive)	3.15 µM (inactive)	> 109 µM (inactive)	–	> 300 µM (inactive)	–	165 µM (inactive)	–
CN(C)CC1(C)CC/C(=C\c2ccccc2)C1=O (stereo unspecified)	> 100 µM (inactive)	> 100 µM (inactive)	> 100 µM (inactive)	> 100 µM (inactive)	–	> 100 µM (inactive)	49 µM (inactive)	> 100 µM (inactive)	> 100 µM (inactive)
Nc1nc(CCc2n[nH]c(N)n2)n[nH]1	> 100 µM (inactive)	> 100 µM (inactive)	> 100 µM (inactive)	–	> 100 µM (inactive)	> 100 µM (inactive)	> 100 µM (inactive)	> 100 µM (inactive)	–
C/C(=N\NC(=O)CC(=O)Nc1ccc(Cl)cc1)c1cc2ccccc2oc1=O	> 100 µM (inactive)	> 100 µM (inactive)	> 100 µM (inactive)	> 100 µM (inactive)	–	> 100 µM (inactive)	–	–	> 100 µM (inactive)
COS(=O)CCOC(=O)c1ccccc1SSc1ccccc1C(=O)OCCS(=O)OC (stereo unspecified)	34.5 µM (inactive)	16 µM (inactive)	26.4 µM (inactive)	> 100 µM (inactive)	18.5 µM (inactive)	21.2 µM (inactive)	–	> 100 µM (inactive)	29.8 µM (inactive)
CC1=C(C(=O)CC(=O)C(=O)Nc2cccc(Cl)c2C)Sc2ccccc2N1	> 100 µM (inactive)	> 100 µM (inactive)	–	> 100 µM (inactive)	> 100 µM (inactive)	> 100 µM (inactive)	> 100 µM (inactive)	> 100 µM (inactive)	> 100 µM (inactive)
